# According to patent US11339171B2, “MDM2 inhibitors” (Gan & Lee Pharmaceuticals, priority 2017, dated 2022):
# Values joined by “and” are separate entries in the source; they are usually repeats but may differ in a detail not shown here. Equal entries are not always repeated. Where two headings read alike, the source gives them in different places.
# Tests used:
# MDM2 = biological target: T1, MDM2 (Homo sapiens, UniProt Q00987); test: Inhibition test of MDM2-P53 (GST-MDM2, Biotin-P53, Anti-GST-Tb, SA-XL665); type: binding
# T1 construct: made in house
# How it was run: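 HTRF-type assay using 4 nM GST-MDM2 (final), Biotin-P53, SA-XL665 and anti-GST-Tb in PBS with 0.1% BSA, 5 mM DTT and 1 mM AEBSF. Compounds in 5-fold serial dilutions over twelve points; incubation 90 min at 25° C with shaking before plate-reader read-out.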
# [1] = Pharmacokinetics in ICR mice after intravenous and intragastric administration; type: in vivo; conditions: for MRT last: read-out: MRT(0-t); for MRT inf: read-out: MRT(0-∞); for Vd: read-out: Vz
# Procedure: Experimental Example 3 Determination of the Pharmacokinetics of the Mdm2 Inhibitors of the Present Invention in Mice
# ICR mice were used as the test animals, and the concentrations of the drugs in plasma of mice at different time points after intravenous administration and intragastric administration of the representative compounds were measured by a LC/MS/MS method, so as to study the pharmacokinetic behavior of the compounds of the present invention in mice and evaluate the pharmacokinetic characteristics thereof.
# Some compounds prepared in Examples 1-180 of the present invention.
# The control drug HDM201 was prepared by the method disclosed in patent No. CN104203952A.
# Healthy adult ICR mice, male, 6-9 weeks old, weighing 20-30 g, purchased from Shanghai Xipuer-Bikai Laboratory Animal Co., Ltd., Animal Production License No.: SCXK (HU) 2013-0016
# 3.2.3 Preparation of Test Drugs
# Intragastric or intravenous administration: an appropriate amount of sample was weighed, dissolved in 5% DMSO+40% PEG400+55% (10% HP-β-CD in Saline) to prepare a 0.5 mg/ml solution for intragastric or intravenous administration.
# 3.2.4 Administration of Test Drugs
# Intravenous administration: for each test compound, 3 male ICR mice were administered intravenously at a dose of 2 mg/kg and an administration volume of […] after fasting overnight.
# Intragastric administration: for each test compound, 3 male ICR mice were administered intragastrically at a dose of 5 mg/kg and an administration volume of […] after fasting overnight.
# 3.3 Experimental Operation
# The collected plasma was stored at −80° C. before analysis. The plasma sample was analyzed by LC-MS/MS, and the sample was pretreated by protein precipitation method. The linear range of sample analysis was 1 to 2000 ng/ml. The lowest quantification limit was 1 ng/mL. WinNonlin (Pharsight, USA) was used to calculate the following pharmacokinetic parameters: area under the curve AUC(0-t), area under the curve AUC(0-∞), half-life t1/2, retention time MRT(0-∞), blood drug concentration Cmax, time taken to reach the peak blood drug concentration Tmax, bioavailability F, apparent volume of distribution Vz, and clearance rate CL.
# [2] = tested on: human osteosarcoma cell line SJSA-1; test: Inhibition of proliferation of human osteosarcoma cell line SJSA-1 (DAPI staining, In Cell Analyzer); conditions: Homo sapiens, SJSA-1, 72 h, read-out: IC50 (nM), inhibitory activity on proliferation of human osteosarcoma cell line SJSA-1, SJSA-1, incubated 72 h
# [3] = ICR mice, IV 2 mg/kg, individual animal, 2 mg/kg
# [4] = ICR mice, PO 5 mg/kg, individual animal, 5 mg/kg
# [5] = male, ICR, mouse, plasma, iv, 2 mg/kg, ICR mice, IV 2 mg/kg, individual animal
# [6] = male, ICR, mouse, plasma, iv, 2 mg/kg, ICR mice, IV 2 mg/kg, mean of 3 animals
# [7] = male, ICR, mouse, plasma, po, 5 mg/kg, ICR mice, PO 5 mg/kg, individual animal
# [8] = male, ICR, mouse, plasma, po, 5 mg/kg, ICR mice, PO 5 mg/kg, mean of 3 animals
# T1 sequence (Q00987 whole entry): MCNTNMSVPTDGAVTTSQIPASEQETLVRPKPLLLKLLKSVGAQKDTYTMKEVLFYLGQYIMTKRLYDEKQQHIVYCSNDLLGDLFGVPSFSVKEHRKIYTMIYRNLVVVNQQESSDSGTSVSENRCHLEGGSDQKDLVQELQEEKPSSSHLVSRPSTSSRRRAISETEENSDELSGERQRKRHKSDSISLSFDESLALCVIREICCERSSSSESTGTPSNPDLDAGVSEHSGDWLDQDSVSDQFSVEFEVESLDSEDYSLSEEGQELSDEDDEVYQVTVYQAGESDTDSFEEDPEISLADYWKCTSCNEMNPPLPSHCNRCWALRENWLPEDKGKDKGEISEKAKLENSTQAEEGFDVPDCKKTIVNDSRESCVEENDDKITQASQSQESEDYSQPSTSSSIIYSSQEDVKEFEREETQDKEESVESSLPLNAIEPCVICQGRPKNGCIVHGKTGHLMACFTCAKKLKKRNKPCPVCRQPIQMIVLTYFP
structure (smiles),measurement,setting,value
"CCOc1cc(OC)c(-c2nc3c(n2C(C)C)[C@@]2(C(=O)Nc4cc(Cl)ccc42)N(c2cc(Cl)ccc2C)C3=O)cn1 [Example S-72, (S)-6-chloro-5′-(5-chloro-2-methylphenyl)-2′-(6-ethoxy-4-methoxypyridin-3-yl)-3′-isopropyl-3′H-spiro[dihydroindole-3,4′-pyrrolo[3,4-d]imidazole]-2,6′(5′H)-dione]",IC50,MDM2,0.9 nM
same,AUC(0-t),[1]; [3],11.80283 µg·h/mL and 14.84737 µg·h/mL
same,AUC(0-∞),[1]; [3],12.17458 µg·h/mL and 17.30595 µg·h/mL
same,CL,[1]; [3],0.164 L/h/kg and 0.116 L/h/kg
same,Cmax,[1]; [3],4.83923 µg/mL and 3.68688 µg/mL
same,MRT(0-t),[1]; [3],1.52 h and 1.96 h
same,MRT(0-∞),[1]; [3],1.71 h and 2.98 h
same,Tmax,[1]; [3],0.08 h and 1.00 h
same,Vz,[1]; [3],0.29 L/kg and 0.36 L/kg
same,t1/2,[1]; [3],1.23 h and 2.16 h
same,AUC(0-t),[1]; [4],51.28619 µg·h/mL and 23.99612 µg·h/mL and 26.94123 µg·h/mL
same,AUC(0-∞),[1]; [4],51.35103 µg·h/mL and 24.16128 µg·h/mL and 27.58631 µg·h/mL
same,Cmax,[1]; [4],7.16086 µg/mL and 6.28971 µg/mL
same,MRT(0-t),[1]; [4],2.18 h and 2.66 h
same,MRT(0-∞),[1]; [4],2.23 h and 2.84 h
same,Tmax,[1]; [4],1.00 h
same,t1/2,[1]; [4],2.54 h and 1.13 h and 1.47 h
same,AUC(0-inf),[1]; [5],11.9 µg·h/mL
same,clearance,[1]; [5],0.168 L/h/kg
same,AUC(0-t),"[1]; male, ICR, mouse, plasma, iv, 2 mg/kg, ICR mice, IV 2 mg/kg, individual animal, read-out: AUC(0-t)",11.5 µg·h/mL
same,Cmax,"[1]; male, ICR, mouse, plasma, iv, 2 mg/kg, ICR mice, IV 2 mg/kg, individual animal, read-out: Cmax",4.63 µg/mL
same,MRT last,[1]; [5],1.53 h
same,MRT inf,[1]; [5],1.78 h
same,Vd,[1]; [5],0.34 L/kg
same,half-life,"[1]; male, ICR, mouse, plasma, iv, 2 mg/kg, ICR mice, IV 2 mg/kg, individual animal, read-out: t1/2 (converted)",1.39 h
same,AUC(0-inf),[1]; [6],13.8 µg·h/mL
same,clearance,[1]; [6],0.149 L/h/kg
same,AUC(0-t),"[1]; male, ICR, mouse, plasma, iv, 2 mg/kg, ICR mice, IV 2 mg/kg, mean of 3 animals, read-out: AUC(0-t)",12.7 µg·h/mL
same,Cmax,"[1]; male, ICR, mouse, plasma, iv, 2 mg/kg, ICR mice, IV 2 mg/kg, mean of 3 animals, read-out: Cmax",4.39 µg/mL
same,MRT last,[1]; [6],1.67 h
same,MRT inf,[1]; [6],2.16 h
same,Tmax,"[1]; male, ICR, mouse, plasma, iv, 2 mg/kg, ICR mice, IV 2 mg/kg, mean of 3 animals, read-out: Tmax",0.389 h
same,Vd,[1]; [6],0.33 L/kg
same,half-life,"[1]; male, ICR, mouse, plasma, iv, 2 mg/kg, ICR mice, IV 2 mg/kg, mean of 3 animals, read-out: t1/2 (converted)",1.59 h
same,Cmax,"[1]; male, ICR, mouse, plasma, po, 5 mg/kg, ICR mice, PO 5 mg/kg, individual animal, read-out: Cmax",7.87 µg/mL
same,MRT last,[1]; [7],3.95 h
same,MRT inf,[1]; [7],3.98 h
same,Tmax,"[1]; male, ICR, mouse, plasma, po, 5 mg/kg, ICR mice, PO 5 mg/kg, individual animal, read-out: Tmax",0.5 h
same,AUC(0-inf),[1]; [8],34.4 µg·h/mL
same,AUC(0-t),"[1]; male, ICR, mouse, plasma, po, 5 mg/kg, ICR mice, PO 5 mg/kg, mean of 3 animals, read-out: AUC(0-t)",34.1 µg·h/mL
same,Cmax,"[1]; male, ICR, mouse, plasma, po, 5 mg/kg, ICR mice, PO 5 mg/kg, mean of 3 animals, read-out: Cmax",7.11 µg/mL
same,MRT last,[1]; [8],2.93 h
same,MRT inf,[1]; [8],3.01 h
same,Tmax,"[1]; male, ICR, mouse, plasma, po, 5 mg/kg, ICR mice, PO 5 mg/kg, mean of 3 animals, read-out: Tmax",0.67 h
same,half-life,"[1]; male, ICR, mouse, plasma, po, 5 mg/kg, ICR mice, PO 5 mg/kg, mean of 3 animals, read-out: t1/2 (converted)",1.72 h
same,AUC(0-t),"[1]; male, ICR, mouse, plasma, po, 5 mg/kg, oral intragastric administration 5 mg/kg, read-out: AUC0-t",34.1 µg·h/mL
same,half-life,"[1]; male, ICR, mouse, plasma, po, 5 mg/kg, oral intragastric administration 5 mg/kg, read-out: half-life (converted)",1.72 h
same,bioavailability,"[1]; male, ICR, mouse, plasma, oral intragastric administration 5 mg/kg, read-out: bioavailability",107%
same,bioavailability,"[1]; male, mouse, plasma, ICR mice, PO 5 mg/kg vs IV 2 mg/kg, from mean values, read-out: F* (bioavailability)",107%
same,IC50,[2],5.9 nM
